Reference: US20260262643A1, “HERBICIDAL BENZOXAZINES” (FMC CORPORATION, priority 2022, published 2026)

How the values were obtained:
soybean [1] = assay: Test A preemergence; assay type: in vivo, Glycine max
Method in brief: (§1)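 Plants were grown in loam and sand and treated preemergence or postemergence (one- to two-leaf stage, 2–10 cm) with compound in solvent plus surfactant. Response was scored against untreated controls after 10 greenhouse days, where 0 means no effect and 100 complete control.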

ryegrass, Italian [2] = assay: Test A preemergence; assay type: in vivo, Lolium multiflorum
Method in brief: as §1

corn [3] = assay: Test A postemergence; assay type: in vivo, Zea mays; details: postemergence, 10 days
Method in brief: as §1

soybean [4] = assay: Test A postemergence; assay type: in vivo, Glycine max; details: postemergence, 10 days
Method in brief: as §1

blackgrass [5] = assay: Test A postemergence; assay type: in vivo, Alopecurus myosuroides; details: postemergence, 10 days
Method in brief: as §1

kochia [6] = assay: Test A postemergence; assay type: in vivo, Bassia scoparia; details: postemergence, 10 days
Method in brief: as §1

goosegrass [7] = assay: Test A preemergence; assay type: in vivo, Eleusine indica
Method in brief: as §1

kochia [8] = assay: Test A preemergence; assay type: in vivo, Bassia scoparia
Method in brief: as §1

ryegrass, Italian [9] = assay: Test A postemergence; assay type: in vivo, Lolium multiflorum; details: postemergence, 10 days
Method in brief: as §1

ragweed [10] = assay: Test A postemergence; assay type: in vivo, Ambrosia artemisiifolia; details: postemergence, 10 days
Method in brief: as §1

oat, wild [11] = assay: Test A preemergence; assay type: in vivo, Avena fatua
Method in brief: as §1

goosegrass [12] = assay: Test A postemergence; assay type: in vivo, Eleusine indica; details: postemergence, 10 days
Method in brief: as §1

wheat [13] = assay: Test A postemergence; assay type: in vivo, Triticum aestivum; details: postemergence, 10 days
Method in brief: as §1

blackgrass [14] = assay: Test A preemergence; assay type: in vivo, Alopecurus myosuroides
Method in brief: as §1

ducksalad = assay: Test B flooded paddy test; assay type: in vivo, Heteranthera limosa; details: 250 g ai/ha, Flood, 13 days, 0 to 100 scale (0 no effect, 100 complete control)
Method in brief: (§2)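 Application into standing water (3 cm above soil) at the two-leaf stage; flood depth held constant. Evaluation: day 13, visual comparison with controls, 0 = no injury, 100 = complete control.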

oat, wild [15] = assay: Test A postemergence; assay type: in vivo, Avena fatua; details: postemergence, 10 days
Method in brief: as §1

barnyardgrass = assay: Test B flooded paddy test; assay type: in vivo, Echinochloa crus-galli; details: 250 g ai/ha, Flood, 13 days, 0 to 100 scale (0 no effect, 100 complete control)
Method in brief: as §2

horseweed = assay: Test A postemergence; assay type: in vivo, Erigeron canadensis; details: postemergence, 10 days
Method in brief: as §1

pigweed, palmer [16] = assay: Test A preemergence; assay type: in vivo, Amaranthus palmeri
Method in brief: as §1

corn [17] = assay: Test A preemergence; assay type: in vivo, Zea mays
Method in brief: as §1

galium = assay: Test A postemergence; assay type: in vivo, Galium aparine; details: postemergence, 10 days
Method in brief: as §1

pigweed, palmer [18] = assay: Test A postemergence; assay type: in vivo, Amaranthus palmeri; details: postemergence, 10 days
Method in brief: as §1

sedge, umbrella = assay: Test B flooded paddy test; assay type: in vivo, Cyperus difformis; details: 250 g ai/ha, Flood, 13 days, 0 to 100 scale (0 no effect, 100 complete control)
Method in brief: as §2

foxtail, giant [19] = assay: Test A postemergence; assay type: in vivo, Setaria faberi; details: postemergence, 10 days
Method in brief: as §1

wheat [20] = assay: Test A preemergence; assay type: in vivo, Triticum aestivum
Method in brief: as §1

foxtail, giant [21] = assay: Test A preemergence; assay type: in vivo, Setaria faberi
Method in brief: as §1

ragweed [22] = assay: Test A preemergence; assay type: in vivo, Ambrosia artemisiifolia
Method in brief: as §1

rice = assay: Test B flooded paddy test; assay type: in vivo, Oryza sativa; details: 250 g ai/ha, Flood, 13 days, 0 to 100 scale (0 no effect, 100 complete control)
Method in brief: as §2

[23] = 125 g ai/ha, visual injury after 10 days, 0 to 100 scale, 0 is no effect, 100 is complete control
[24] = 500 g ai/ha, 0 to 100 scale (0 no effect, 100 complete control), 10 days
[25] = 125 g ai/ha, 0 to 100 scale, 0 no effect, 100 complete control
[26] = 500 g ai/ha, visual injury, 0 to 100 scale (0 no effect, 100 complete control)

For `Cc1ccc(-n2cnc(C(C)C)n2)cc1C(=O)N1C[C@H](C)Oc2c(C)cccc21` [Compound 99], the “Plant response rating, Soybean” value (soybean [1]; [23]) was 80, the “Plant response rating, Soybean” value (soybean [1]; [24]) was 100 and the “Plant response rating, Ryegrass, Italian” value (ryegrass, Italian [2]; [23]) was 90. For the same compound, the “Plant response rating, Ryegrass, Italian” value (ryegrass, Italian [2]; [24]) was 100, the “Corn plant response rating” value (corn [3]; [25]) was 70 and the “Plant response rating, Corn” value (corn [3]; [26]) was 90. For the same compound, the “Soybean plant response rating” value (soybean [4]; [25]) was 100, the “Plant response rating, Soybean” value (soybean [4]; [26]) was 100 and the “Blackgrass plant response rating” value (blackgrass [5]; [25]) was 90. The “Plant response rating, Blackgrass” value (blackgrass [5]; [26]) was 90, the “Kochia plant response rating” value (kochia [6]; [25]) was 80 and the “Plant response rating, Kochia” value (kochia [6]; [26]) was 90. For the same compound, the “Plant response rating, Goosegrass” value (goosegrass [7]; [23]) was 100, the “Plant response rating, Goosegrass” value (goosegrass [7]; [24]) was 100 and the “Plant response rating, Kochia” value (kochia [8]; [23]) was 100. For the same compound, the “Plant response rating, Kochia” value (kochia [8]; [24]) was 100, the “Ryegrass, Italian plant response rating” value (ryegrass, Italian [9]; [25]) was 50 and the “Plant response rating, Ryegrass, Italian” value (ryegrass, Italian [9]; [26]) was 100. For the same compound, the “Ragweed plant response rating” value (ragweed [10]; [25]) was 40, the “Plant response rating, Ragweed” value (ragweed [10]; [26]) was 90 and the “Plant response rating, Oat, Wild” value (oat, wild [11]; [23]) was 70. The “Plant response rating, Oat, Wild” value (oat, wild [11]; [24]) was 90, the “Goosegrass plant response rating” value (goosegrass [12]; [25]) was 90 and the “Plant response rating, Goosegrass” value (goosegrass [12]; [26]) was 100. The “Wheat plant response rating” value (wheat [13]; [25]) was 80, the “Plant response rating, Wheat” value (wheat [13]; [26]) was 90 and the “Plant response rating, Blackgrass” value (blackgrass [14]; [23]) was 80. For the same compound, the “Plant response rating, Blackgrass” value (blackgrass [14]; [24]) was 90, the “Plant response rating, Ducksalad” value (ducksalad) was 40 and the “Oat, Wild plant response rating” value (oat, wild [15]; [25]) was 70. The “Plant response rating, Oat, Wild” value (oat, wild [15]; [26]) was 90, the “Plant response rating, Barnyardgrass” value (barnyardgrass) was 35 and the “Horseweed plant response rating” value (horseweed; [25]) was 70. The “Plant response rating, Horseweed” value (horseweed; [26]) was 80, the “Plant response rating, Pigweed, Palmer” value (pigweed, palmer [16]; [23]) was 100 and the “Plant response rating, Pigweed, Palmer” value (pigweed, palmer [16]; [24]) was 100. For the same compound, the “Plant response rating, Corn” value (corn [17]; [23]) was 10, the “Plant response rating, Corn” value (corn [17]; [24]) was 50 and the “Galium plant response rating” value (galium; [25]) was 100. For the same compound, the “Plant response rating, Galium” value (galium; [26]) was 100, the “Pigweed, Palmer plant response rating” value (pigweed, palmer [18]; [25]) was 90 and the “Plant response rating, Pigweed, Palmer” value (pigweed, palmer [18]; [26]) was 100. For the same compound, the “Plant response rating, Sedge, Umbrella” value (sedge, umbrella) was 95, the “Foxtail, Giant plant response rating” value (foxtail, giant [19]; [25]) was 90 and the “Plant response rating, Foxtail, Giant” value (foxtail, giant [19]; [26]) was 90. For the same compound, the “Plant response rating, Wheat” value (wheat [20]; [23]) was 30, the “Plant response rating, Wheat” value (wheat [20]; [24]) was 80 and the “Plant response rating, Foxtail, Giant” value (foxtail, giant [21]; [23]) was 100. For the same compound, the “Plant response rating, Foxtail, Giant” value (foxtail, giant [21]; [24]) was 100, the “Plant response rating, Ragweed” value (ragweed [22]; [23]) was 40 and the “Plant response rating, Ragweed” value (ragweed [22]; [24]) was 80. The “Plant response rating, Rice” value (rice) was 10.
